Laboratory results: the supplement of paper PMC11208160

Assay: recombinant UMI read abundance after kanamycin selection (control-corrected) (log10(CPM+1)); higher = more efficient recombination; extreme values may be limits of the assay; sequences stand for … in AGTGCAGAGAAAATCGGCCAGTTTTCTCTGCCTGCAGTCCGCATGCCGTGGGACCCCTTGGGTTCTAACCTGTTGCCTAGATTTATGCAGCGGACTGCCTTTCTCCCAAAGTGATAAACCGG…AGGTTGGTTTCACT; site = the 11-nt donor
Outline: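 Reported values are log10(CPM+1) from a pooled Escherichia coli screen of donor and donor-binding-loop pairs for the IS621 bridge recombinase. Selection used IPTG (0.07 mM) plus kanamycin, against unselected plating, each in two replicates. Recombinant UMIs were amplified across the donor–target junction, sequenced, converted to CPM, averaged over replicates and scaled by control-derived factors.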
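Also: IS621 bridge recombinase in Escherichia coli cells against a fixed T5 target plasmid.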

| Sequence | recombinant UMI read abundance (log10) |
| --- | --- |
| AGTTATGCATGGACCGGTTTTCCCGGTAATCCGTATTTGGA (site AGTTATGCTTC) | 0.923 |
| AGTTATGCATGGACCGGTTTTCCCGGTAATCCGTATTTGGA (site ATTTATGCTTC) | 0.709 |
| AGTTGTACATGGACCGGTTTTCCCGGTAATCCGTATTTGGT (site AGTTGTACTAC) | 0.56 |
| AGTTGTCCATGGACCGGTTTTCCCGGTAATCCGTATTTGGG (site AGTTGTCCTCC) | 0.0152 |
| AGTTGTGCATGGACCGGTTTTCCCGGTAATCCGTATTTGAA (site AGTTGTGCTTT) | 0.535 |
| AGTTGTTCATGGACCGGTTTTCCCGGTAATCCGTATTTGGC (site AGTTGTTCTGC) | 1.34 |
| AGTTTGGCATGGACCGGTTTTCCCGGTAATCCGTATTTGCT (site AGTTTGGCTAG) | 0.0222 |
| AGTTTGGCATGGACCGGTTTTCCCGGTAATCCGTATTTGCT (site CGTTTGGCTAG) | 0 |
| AGTTTGGCATGGACCGGTTTTCCCGGTAATCCGTATTTGCT (site GGTTTGGCTAG) | 0 |
| AGTTTGGCATGGACCGGTTTTCCCGGTAATCCGTATTTGCT (site TGTTTGGCTAG) | 0.0837 |
| ATAAAGGCATGGACCGGTTTTCCCGGTAATCCGTATTTGGG (site ATAAAGGCTCC) | 1.03 |
| ATAACTCCATGGACCGGTTTTCCCGGTAATCCGTATTTGCC (site ATAACTCCTGG) | 1.64 |
| ATAAGCACATGGACCGGTTTTCCCGGTAATCCGTATTTGAT (site ATAAGCACTAT) | 2.23 |
| ATAAGCCCATGGACCGGTTTTCCCGGTAATCCGTATTTGAC (site ATAAGACCTGT) | 0 |
| ATAAGCCCATGGACCGGTTTTCCCGGTAATCCGTATTTGAC (site ATAAGCCCTGT) | 2.3 |
| ATAAGCCCATGGACCGGTTTTCCCGGTAATCCGTATTTGAC (site ATAAGGCCTGT) | 0.528 |
| ATAAGCCCATGGACCGGTTTTCCCGGTAATCCGTATTTGAC (site ATAAGTCCTGT) | 0.889 |
| ATAAGGCCATGGACCGGTTTTCCCGGTAATCCGTATTTGTC (site ATAAGGCCTGA) | 1.94 |
| ATAAGGCCATGGACCGGTTTTCCCGGTAATCCGTATTTGTC (site ATAAGGCCTGC) | 0 |
| ATAAGGCCATGGACCGGTTTTCCCGGTAATCCGTATTTGTC (site ATAAGGCCTGG) | 2.46 |
| ATAAGGCCATGGACCGGTTTTCCCGGTAATCCGTATTTGTC (site ATAAGGCCTGT) | 0 |
| ATAAGGTCATGGACCGGTTTTCCCGGTAATCCGTATTTGCA (site ATAAGGTCTTG) | 2.96 |
| ATACAAGCATGGACCGGTTTTCCCGGTAATCCGTATTTGAG (site ATACAAGCTCT) | 2.31 |
| ATACAAGCATGGACCGGTTTTCCCGGTAATCCGTATTTGAG (site ATCCAAGCTCT) | 0.803 |
| ATACAAGCATGGACCGGTTTTCCCGGTAATCCGTATTTGAG (site ATGCAAGCTCT) | 0.923 |

| Sequence | recombinant UMI read abundance (log10) |
| --- | --- |
| ATACAAGCATGGACCGGTTTTCCCGGTAATCCGTATTTGAG (site ATTCAAGCTCT) | 0.673 |
| ATACATGCATGGACCGGTTTTCCCGGTAATCCGTATTTGCT (site ATACATGCTAG) | 2.75 |
| ATACGGCCATGGACCGGTTTTCCCGGTAATCCGTATTTGAC (site ATAAGGCCTGT) | 0 |
| ATACGGCCATGGACCGGTTTTCCCGGTAATCCGTATTTGAC (site ATACGGCCTGT) | 0 |
| ATACGGCCATGGACCGGTTTTCCCGGTAATCCGTATTTGAC (site ATAGGGCCTGT) | 0 |
| ATACGGCCATGGACCGGTTTTCCCGGTAATCCGTATTTGAC (site ATATGGCCTGT) | 0 |
| ATACTAACATGGACCGGTTTTCCCGGTAATCCGTATTTGGA (site ATACTAACTTC) | 1.2 |
| ATACTAACATGGACCGGTTTTCCCGGTAATCCGTATTTGGA (site CTACTAACTTC) | 0.853 |
| ATACTAACATGGACCGGTTTTCCCGGTAATCCGTATTTGGA (site GTACTAACTTC) | 0.275 |
| ATACTAACATGGACCGGTTTTCCCGGTAATCCGTATTTGGA (site TTACTAACTTC) | 2.05 |
| ATACTGGCATGGACCGGTTTTCCCGGTAATCCGTATTTGTT (site ATACTGGCTAA) | 0.589 |
| ATAGACTCATGGACCGGTTTTCCCGGTAATCCGTATTTGGT (site ATAGACTCTAC) | 2.79 |
| ATAGCATCATGGACCGGTTTTCCCGGTAATCCGTATTTGAC (site ATAGCATCTGT) | 3.53 |
| ATAGCATCATGGACCGGTTTTCCCGGTAATCCGTATTTGAC (site CTAGTATCTGT) | 1.8 |
| ATAGGAGCATGGACCGGTTTTCCCGGTAATCCGTATTTGGC (site ATAGGAGCTGC) | 2.91 |
| ATAGTATCATGGACCGGTTTTCCCGGTAATCCGTATTTGCG (site ACAGTATCTTG) | 1.46 |
| ATAGTATCATGGACCGGTTTTCCCGGTAATCCGTATTTGCG (site ATAGTATCTCG) | 3.07 |
| ATAGTTTCATGGACCGGTTTTCCCGGTAATCCGTATTTGAC (site ATAGTTTCTGT) | 2.62 |
| ATAGTTTCATGGACCGGTTTTCCCGGTAATCCGTATTTGAC (site CTAGTATCTGT) | 2.45 |
| ATATCGGCATGGACCGGTTTTCCCGGTAATCCGTATTTGGT (site ATATCGGCTAC) | 0.889 |
| ATATGACCATGGACCGGTTTTCCCGGTAATCCGTATTTGAC (site ATATGACCTGT) | 0 |
| ATATGATCATGGACCGGTTTTCCCGGTAATCCGTATTTGGG (site ATATGATCTCC) | 1.26 |
| ATATGGCCATGGACCGGTTTTCCCGGTAATCCGTATTTGAC (site ATAAGGCCTGT) | 0 |
| ATATGGCCATGGACCGGTTTTCCCGGTAATCCGTATTTGAC (site ATACGGCCTGT) | 0 |
| ATATGGCCATGGACCGGTTTTCCCGGTAATCCGTATTTGAC (site ATAGGGCCTGT) | 0 |

| Sequence | recombinant UMI read abundance (log10) |
| --- | --- |
| ATATGGCCATGGACCGGTTTTCCCGGTAATCCGTATTTGAC (site ATATGGCCTGT) | 0 |
| ATATTCGCATGGACCGGTTTTCCCGGTAATCCGTATTTGCT (site ATATTCGCTAG) | 2.58 |
| ATCAAAGCATGGACCGGTTTTCCCGGTAATCCGTATTTGAG (site ATCAAAGCTCT) | 2.17 |
| ATCAAAGCATGGACCGGTTTTCCCGGTAATCCGTATTTGAG (site ATCCAAGCTCT) | 0.889 |
| ATCAAAGCATGGACCGGTTTTCCCGGTAATCCGTATTTGAG (site ATCGAAGCTCT) | 0.781 |
| ATCAAAGCATGGACCGGTTTTCCCGGTAATCCGTATTTGAG (site ATCTAAGCTCT) | 0.855 |
| ATCACATCATGGACCGGTTTTCCCGGTAATCCGTATTTGCG (site ATCACATCTCG) | 2.31 |
| ATCAGACCATGGACCGGTTTTCCCGGTAATCCGTATTTGCA (site ATCAGACCTTG) | 0 |
| ATCAGGCCATGGACCGGTTTTCCCGGTAATCCGTATTTGAC (site ATAAGGCCTGT) | 0 |
| ATCAGGCCATGGACCGGTTTTCCCGGTAATCCGTATTTGAC (site ATCAGGCCTGT) | 0 |
| ATCAGGCCATGGACCGGTTTTCCCGGTAATCCGTATTTGAC (site ATGAGGCCTGT) | 0 |
| ATCAGGCCATGGACCGGTTTTCCCGGTAATCCGTATTTGAC (site ATTAGGCCTGT) | 0 |
| ATCAGGCCATGGACCGGTTTTCCCGGTAATCCGTATTTGAG (site ATCAGGCCTCT) | 0 |
| ATCATGCCATGGACCGGTTTTCCCGGTAATCCGTATTTGCC (site ATCATGCCTGG) | 0 |
| ATCATTGCATGGACCGGTTTTCCCGGTAATCCGTATTTGAC (site ATCATTGCTGT) | 1.48 |
| ATCATTTCATGGACCGGTTTTCCCGGTAATCCGTATTTGCA (site ATCATTTCTTG) | 1.73 |
| ATCCAAGCATGGACCGGTTTTCCCGGTAATCCGTATTTGAC (site ATCCAAGCTAT) | 0.937 |
| ATCCAAGCATGGACCGGTTTTCCCGGTAATCCGTATTTGAC (site ATCCAAGCTCT) | 0.0101 |
| ATCCAAGCATGGACCGGTTTTCCCGGTAATCCGTATTTGAC (site ATCCAAGCTGT) | 1.73 |
| ATCCAAGCATGGACCGGTTTTCCCGGTAATCCGTATTTGAC (site ATCCAAGCTTT) | 0.767 |
| ATCCAAGCATGGACCGGTTTTCCCGGTAATCCGTATTTGAG (site AACCAAGCTCT) | 0.0115 |
| ATCCAAGCATGGACCGGTTTTCCCGGTAATCCGTATTTGAG (site ACCCAAGCTCT) | 0.646 |
| ATCCAAGCATGGACCGGTTTTCCCGGTAATCCGTATTTGAG (site AGCCAAGCTCT) | 0.194 |
| ATCCAAGCATGGACCGGTTTTCCCGGTAATCCGTATTTGAG (site ATACAAGCTCT) | 0.0267 |
| ATCCAAGCATGGACCGGTTTTCCCGGTAATCCGTATTTGAG (site ATCAAAGCTCT) | 0.429 |
